Data taken from patent EP2864333B1, “ETODOLAC DERIVATIVES AS HCV NS5B POLYMERASE INHIBITORS” (priority 2012, dated 2014).
Read-outs that look alike come from different tables or passages of the source.

Tests used:
[1] = target: T1, HCV NS5B RdRp (NS5BCdelta21) (Hepatitis C virus genotype 1b, UniProt P26663); assay: HCV NS5B RNA-dependent RNA polymerase (RdRp) assay, poly rA/U12 primer-dependent elongation; assay type: biochemical; details: for inhibition at 100 µM: read-out: Anti-NS5B Activity (% Inhibition, 100 µM); for inhibition at 200 µM: read-out: Anti-NS5B Activity (% Inhibition, 200 µM)
T1 construct: 500 ng of NS5BCdelta21; made in house; host or cells: Escherichia coli DH5alpha
T1 sequence (P26663 2420-2989): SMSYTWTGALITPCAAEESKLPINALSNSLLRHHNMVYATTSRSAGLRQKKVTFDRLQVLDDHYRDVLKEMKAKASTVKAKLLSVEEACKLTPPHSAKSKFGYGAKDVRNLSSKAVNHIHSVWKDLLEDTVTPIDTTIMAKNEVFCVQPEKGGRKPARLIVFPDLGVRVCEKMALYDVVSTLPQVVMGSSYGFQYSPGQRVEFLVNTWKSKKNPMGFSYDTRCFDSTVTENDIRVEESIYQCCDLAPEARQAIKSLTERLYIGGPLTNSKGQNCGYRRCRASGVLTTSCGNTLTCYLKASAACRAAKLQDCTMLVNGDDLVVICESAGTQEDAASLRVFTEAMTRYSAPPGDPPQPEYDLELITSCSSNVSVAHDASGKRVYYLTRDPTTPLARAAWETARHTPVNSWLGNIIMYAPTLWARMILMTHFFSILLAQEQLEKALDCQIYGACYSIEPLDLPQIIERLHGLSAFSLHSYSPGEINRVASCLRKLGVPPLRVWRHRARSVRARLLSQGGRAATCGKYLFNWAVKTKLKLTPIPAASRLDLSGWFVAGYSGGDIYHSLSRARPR
Description: The RdRp activity of NS5B was evaluated by the standard primer-dependent elongation reactions employing poly rA/U12 template-primers (TP). Reaction mixtures containing 20 mM Tris-HCl (pH 7.0), 100 mM NaCl, 100 mM Na-glutamate, 0.5 mM DTT, 0.01% BSA, 0.01% Tween-20, 5% glycerol, 20 U/ml of RNasin, 0.5 microM of poly rA/U12, 25 microM UTP, 2-5 microCi [alpha-32P]UTP, 500 ng of NS5BCdelta21 and 0.5 mM MnCl2 with or without inhibitors in a total volume of 25 microliters were incubated for 1 h at 30°C. Reactions were quenched by the addition of ice cold 5% (v/v) trichloroacetic acid (TCA) containing 0.5 mM pyrophosphate (PPi), the denatured polymeric RNA products were transferred to GF-B filters and the amount of radioactive UMP incorporated into RNA products was quantified on a liquid scintillation counter (Packard). The concentrations of the compounds inhibiting 50% of NS5B RdRp activity (IC50) were calculated from the inhibition curves as a function of inhibitor concentration. Nsp12 activity was similarly evaluated except that incubations were carried out at 25°C for optimal enzymatic activity.
The ability of the compounds to inhibit HCV NS5B RdRp activity was investigated in vitro by polyrA-U12 extension assay as described in experimental section by Kaushik-Basu N, et al.. The compounds SGK 224-230, 313 and SGK 238- 244, 315 were reconstituted in DMSO as 50 mM stocks, and serially diluted in DMSO to obtain working stocks.
Preliminary screening was carried out at 100 µM to identify a wider range of compounds. […] NS5B RdRp activity in the absence of the inhibitor was taken as 100 percent after subtraction of residual background activity. The concentration of DMSO in all reactions was kept constant at 5%. […] Curves were fitted to data points using nonlinear regression analysis and IC50 values were interpolated from the resulting curves using GraphPad Prism 3.03 software.

[2] = target: T1, HCV NS5B RdRp (NS5BCdelta21); assay: as above; assay type: biochemical; details: read-out: Anti-HCV Activity (%Inhibition, 100 µM)
[3] = dose-response curves, 8-10 concentrations, duplicate, two independent experiments, read-out: IC50

Structure (SMILES): CCc1cccc2c3c([nH]c12)C(CC)(CC(=O)NN=Cc1cccc(F)c1)OCC3 (stereo not drawn) [SGK 202, 2-(1,8-Diethyl-1,3,4,9-tetrahydropyrano[3,4-b]indole-1-yl) acetic acid [(3-fluorophenyl)methylene] hydrazide]
- IC50 [1]: 35.9 ± 1.4 µM
- inhibition at 100 µM [1]: 61.6 ± 0.4%
- inhibition at 200 µM [1]: 66.4 ± 5.8%

Structure (SMILES): CCc1cccc2c3c([nH]c12)C(CC)(CC(=O)NN)OCC3 (stereo not drawn) [SGK 197, 2-(1,8-diethyl-1,3,4,9-tetrahydropyrano[3,4-b]indole-1-yl)acetohydrazide]
- inhibition at 100 µM [1]: 11.4 ± 0.2%
- inhibition at 200 µM [1]: 19 ± 4.4%

Structure (SMILES): COc1cc(O)c2c(c1)oc(=O)c1c3cc(O)c(O)cc3oc21 [Wedelolacton, reference compound]
- IC50 [1, 3]: 36 µM

Structure (SMILES): C=CCNC(=S)NNC(=O)CC1(CC)OCCc2c1[nH]c1c(CC)cccc21 (stereo not drawn) [SGK 229, 1-[2-(1,8-Diethyl-1,3,4,9-tetrahydropyrano[3,4-b]indole-1-yl)acetyl]-4-allyl thiosemicarbazide]
- IC50 [1, 3]: 16.8 ± 1.2 µM
- inhibition at 100 µM [1]: 78.6 ± 2.1%
- inhibition at 200 µM [1]: 81.6 ± 0.8%

Structure (SMILES): CCc1cccc2c3c([nH]c12)C(CC)(CC(=O)O)OCC3 (racemic) [Etodolac, (R,S)-2-[1,8-diethyl-1,3,4-tetrahydrapyrano[3,4-b]indole-1-yl]acetic acid]
- inhibition at 100 µM [2]: 7.4%

Structure (SMILES): CCc1cccc2c3c([nH]c12)C(CC)(CC(=O)NNC(=S)NC)OCC3 (stereo not drawn) [SGK 224, 1-[2-(1,8-diethyl-1,3,4,9-tetrahydropyrano[3,4-b]indol-1-yl)acetyl]-4-methyl thiosemicarbazide]
- IC50 [1, 3]: 18.7 µM
- inhibition at 100 µM [1]: 76.2 ± 0.5%
- inhibition at 200 µM [1]: 77.5 ± 1.3%

Structure (SMILES): CCc1cccc2c3c([nH]c12)C(CC)(Cc1n[nH]c(=S)n1C)OCC3 (stereo not drawn) [SGK 238, 5-[(1,8-diethyl-1,3,4,9-tetrahydropyrano[3,4-b]indol-1-yl)methyl]-4-methyl-2,4-dihydro-3H-1,2,4-triazole-3-thione]
- IC50 [1]: 14.8 µM
- inhibition at 100 µM [1]: 78.9 ± 0.7%
- inhibition at 200 µM [1]: 86 ± 0.6%

Structure (SMILES): CCc1cccc2c3c([nH]c12)C(CC)(CC(=O)OC)OCC3 (racemic) [SGK 196, methyl (1,8-diethyl-1,3,4,9-tetrahydropirano[3,4-b]indole-1-yl) acetate]
- inhibition at 100 µM [1]: 6.4 ± 0.9%
- inhibition at 200 µM [1]: 13.3 ± 1.2%
